Here are results for 3 molecules from paper PMC7604895, “Identification of a Novel Substrate-Derived Spermine Oxidase Inhibitor” (Acta Naturae, 2020).

Each structure is given as a SMILES string.

Common to all, as to type: biochemical
The target in assay [1] is T1, spermine oxidase (SMOX) (Homo sapiens, UniProt Q9NWM0).
T1 construct: human SMOX expressed from pET15b in E. coli BL21(DE3), polyhistidine tag removed by thrombin
The assay can be described thus: luminol-HRP chemiluminescent H2O2 assay with purified SMOX, […] Spm substrate (positive control inhibitor).

For assay [2], the target named is T1, spermine oxidase (SMOX). Kind of assay: substrate turnover by purified SMOX, luminol-HRP chemiluminescent H2O2 detection.
The target of assay [3] is T1, spermine oxidase (SMOX). Kind of assay: luminol-HRP chemiluminescent H2O2 assay with purified SMOX, […] Spm substrate, […] min preincubation.

T1 sequence (Q9NWM0 whole entry): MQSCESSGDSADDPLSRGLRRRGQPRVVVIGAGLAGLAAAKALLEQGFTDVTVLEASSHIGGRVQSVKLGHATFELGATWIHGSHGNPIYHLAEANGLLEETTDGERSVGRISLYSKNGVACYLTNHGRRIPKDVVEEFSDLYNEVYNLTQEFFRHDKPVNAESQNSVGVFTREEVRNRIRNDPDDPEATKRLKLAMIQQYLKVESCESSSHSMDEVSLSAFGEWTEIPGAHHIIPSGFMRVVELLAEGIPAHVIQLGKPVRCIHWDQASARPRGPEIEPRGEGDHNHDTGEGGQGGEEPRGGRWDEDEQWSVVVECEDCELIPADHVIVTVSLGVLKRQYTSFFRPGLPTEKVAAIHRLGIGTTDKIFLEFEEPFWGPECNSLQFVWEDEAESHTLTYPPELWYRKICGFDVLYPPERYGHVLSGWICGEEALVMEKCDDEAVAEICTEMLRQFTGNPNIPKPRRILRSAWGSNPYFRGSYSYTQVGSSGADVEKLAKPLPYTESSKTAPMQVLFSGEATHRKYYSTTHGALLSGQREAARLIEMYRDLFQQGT

With `C=C=CCNCCCCNCC=C=C` [MDL72527, N1,N4-(bis(2,3-butadienyl)-1,4-butanediamine)], 100 µM corresponded to half-maximal inhibition against spermine oxidase (SMOX) [1] (IC50).
For the molecule `NCCCNCCCCNCCCN` [Spm, spermine], the “substrate turnover by purified SMOX, luminol-HRP chemiluminescent H2O2 detection” value at spermine oxidase (SMOX) [2] is given as “SMOX activity was measured using a chemiluminescent enzyme-based assay detecting the formation of H2O2 in the presence of Spm”.
In the case of `C=C(CN)CNCCCCNCC(=C)CN` [2,11-Met2-Spm, 1,12-diamino-2,11-bis(methylidene)-4,9-diazadodecane], at spermine oxidase (SMOX) [3], the IC50 (in general, the midpoint of a concentration-inhibition curve) was determined as 169 µM.
